# Measurements taken from patent publication US20240423207A1, “PICOLINAMIDE COMPOUNDS WITH FUNGICIDAL ACTIVITY” (CORTEVA AGRISCIENCE LLC, priority 2014, published 2024).
# Like-named read-outs stand apart in the source and are kept apart here.
# Legend:
# [1] = test system: Mycosphaerella graminicola; Anamorph: Septoria tritici; test: Leaf Blotch of Wheat (SEPTTR) fungicidal activity on wheat seedlings; assay type: in vivo; settings: Zymoseptoria tritici; for pest or weed control at 121.5 g/ha: Low Volume, 121.5 g/H; for pest or weed control at 100 ppm: High Volume
# Description: Example A: Evaluation of Fungicidal Activity: Leaf Blotch of Wheat (Mycosphaerella graminicola; Anamorph: Septoria tritici; Bayer code […]): Technical grades of materials were dissolved in acetone, which were then mixed with nine volumes of water (H2O) containing 110 ppm Triton X-100. The fungicide solutions were applied onto wheat seedlings using an automated booth sprayer to run-off. All sprayed plants were allowed to air dry prior to further handling. All fungicides were evaluated using the aforementioned method for their activity vs. all target diseases, unless stated otherwise. Wheat leaf blotch and brown rust activity were also evaluated using track spray applications, in which case the fungicides were formulated as EC formulations, containing 0.1% Trycol 5941 in the spray solutions. Wheat plants (variety Yuma) were grown from seed in a greenhouse in 50% mineral soil/50% soil-less Metro mix until the first leaf was fully emerged, with 7-10 seedlings per pot. These plants were inoculated with an aqueous spore suspension of Septoria tritici either prior to or after fungicide treatments. After inoculation the plants were kept in 100% relative humidity (one day in a dark dew chamber followed by two to three days in a lighted dew chamber at 20° C.) to permit spores to germinate and infect the leaf. The plants were then transferred to a greenhouse set at 20° C. for disease to develop. When disease symptoms were fully expressed on the 1st leaves of untreated plants, infection levels were assessed on a scale of 0 to 100 percent disease severity. Percent disease control was calculated using the ratio of disease severity on treated plants relative to untreated plants.
# [2] = test system: Puccinia triticina; Synonym: Puccinia recondita f sp. tritici; test: Wheat Brown Rust (PUCCRT) fungicidal activity on wheat seedlings; assay type: in vivo; settings: for pest or weed control at 121.5 g/ha: Low Volume, 121.5 g/H; for pest or weed control at 100 ppm: High Volume
# Description: Technical grades of materials were dissolved in acetone, which were then mixed with nine volumes of water (H2O) containing 110 ppm Triton X-100. The fungicide solutions were applied onto wheat seedlings using an automated booth sprayer to run-off. All sprayed plants were allowed to air dry prior to further handling. All fungicides were evaluated using the aforementioned method for their activity vs. all target diseases, unless stated otherwise. Wheat leaf blotch and brown rust activity were also evaluated using track spray applications, in which case the fungicides were formulated as EC formulations, containing 0.1% Trycol 5941 in the spray solutions. Wheat plants (variety Yuma) were grown from seed in a greenhouse in 50% mineral soil/50% soil-less Metro mix until the first leaf was fully emerged, with 7-10 seedlings per pot. These plants were inoculated with an aqueous spore suspension of Septoria tritici either prior to or after fungicide treatments. After inoculation the plants were kept in 100% relative humidity (one day in a dark dew chamber followed by two to three days in a lighted dew chamber at 20° C.) to permit spores to germinate and infect the leaf. The plants were then transferred to a greenhouse set at 20° C. for disease to develop. When disease symptoms were fully expressed on the 1st leaves of untreated plants, infection levels were assessed on a scale of 0 to 100 percent disease severity. Percent disease control was calculated using the ratio of disease severity on treated plants relative to untreated plants. Example B: Evaluation of Fungicidal Activity: Wheat Brown Rust (Puccinia triticina; Synonym: Puccinia recondita f sp. tritici; Bayer code PUCCRT): Wheat plants (variety Yuma) were grown from seed in a greenhouse in 50% mineral soil/50% soil-less Metro mix until the first leaf was fully emerged, with 7-10 seedlings per pot. These plants were inoculated with an aqueous spore suspension of Puccinia triticina either prior to or after fungicide treatments. After inoculation the plants were kept in a dark dew room at 22° C. with 100% relative humidity overnight to permit spores to germinate and infect the leaf. The plants were then transferred to a greenhouse set at 24° C. for disease to develop. Fungicide formulation, application and disease assessment followed the procedures as described in the Example A.
# [3] = 24 h, 1 Day Protectant, read-out: SEPTTR 1DP disease control
# [4] = 72 h, 3 Day Curative, read-out: SEPTTR 3DC disease control
# [5] = 24 h, 1 Day Protectant, read-out: PUCCRT 1DP disease control
# [6] = 72 h, 3 Day Curative, read-out: PUCCRT 3DC disease control
SMILES,"pest or weed control at 121.5 g/ha [1, 3]","pest or weed control at 121.5 g/ha [1, 4]","pest or weed control at 121.5 g/ha [2, 5]","pest or weed control at 121.5 g/ha [2, 6]","pest or weed control at 100 ppm [1, 3]","pest or weed control at 100 ppm [1, 4]","pest or weed control at 100 ppm [2, 5]","pest or weed control at 100 ppm [2, 6]"
COc1ccnc(C(=O)N[C@@H](C)C(=O)O[C@@H](C)C(F)(c2ccccc2)c2ccccc2)c1OC(C)=O [Cmpd 152],> 80%,> 80%,< 80%,< 80%,,,,
CC(=O)OCOc1cccnc1C(=O)N[C@@H](C)C(=O)O[C@@H](C)C(c1ccc(F)cc1)c1ccc(F)cc1 [Cmpd 178],> 80%,> 80%,< 80%,,,,,
COc1ccnc(C(=O)N[C@@H](C)C(=O)O[C@@H](C)C(c2ccc(F)cc2)c2ccc(F)cc2)c1OC(=O)C1CC1 [Cmpd 210],> 80%,> 80%,> 80%,< 80%,,,,
COc1ccnc(C(=O)N[C@@H](C)C(=O)O[C@@H](C)C(c2ccc(C)s2)c2ccc(C)s2)c1O [Cmpd 104],,,,,< 80%,> 80%,> 80%,
COc1ccnc(C(=O)N[C@H](C(=O)O[C@@H](C)C(c2ccc(F)cc2)c2ccc(F)cc2)C(C)C)c1O [Cmpd 115],,,,,> 80%,> 80%,< 80%,
CC[C@H](NC(=O)c1nccc(OC)c1OC(C)=O)C(=O)O[C@@H](C)C(c1ccc(F)cc1)c1ccc(F)cc1 [Cmpd 188],> 80%,> 80%,> 80%,< 80%,,,,
COc1ccnc(C(=O)N[C@@H](C)C(=O)O[C@@H](C)C(c2cccc(F)c2)c2cccc(F)c2)c1OC(C)=O [Cmpd 156],> 80%,> 80%,> 80%,> 80%,,,,
COc1ccnc(C(=O)NCC(=O)O[C@@H](C)C(c2ccc(F)cc2)c2ccc(F)cc2)c1OC(C)=O [Cmpd 187],< 80%,< 80%,> 80%,< 80%,,,,
COc1ccnc(C(=O)N[C@@H](C)C(=O)O[C@@H](C)C(c2cccs2)c2cccs2)c1OC(C)=O [Cmpd 143],,< 80%,< 80%,,,,,
COc1ccnc(C(=O)N[C@@H](C)C(=O)OC(C)C2c3ccccc3-c3ccccc32)c1OCOC(C)=O (stereo partly shown) [Cmpd 163],< 80%,> 80%,< 80%,,,,,
COc1ccnc(C(=O)N[C@@H](C)C(=O)O[C@@H](C)C(c2ccc(F)cc2)c2ccc(F)cc2)c1O [Cmpd 92],,,,,> 80%,> 80%,> 80%,> 80%
COc1ccnc(C(=O)N[C@@H](C)C(=O)O[C@@H](C)C(c2ccc(F)c(Cl)c2)c2ccc(F)c(Cl)c2)c1OCOC(C)=O [Cmpd 219],> 80%,> 80%,> 80%,,,,,
CCc1ccc(C(c2ccc(CC)cc2)[C@H](C)OC(=O)[C@H](C)NC(=O)c2nccc(OC)c2OCOC(C)=O)cc1 [Cmpd 198],> 80%,> 80%,> 80%,< 80%,,,,
COc1ccnc(C(=O)N[C@@H](C)C(=O)O[C@@H](C)C(F)(c2ccccc2)c2ccccc2)c1O [Cmpd 97],,,,,> 80%,> 80%,< 80%,
COc1ccnc(C(=O)N[C@@H](C)C(=O)O[C@@H](C)C(O)(c2ccc(Cl)c(F)c2)c2ccc(Cl)c(F)c2)c1O [Cmpd 128],,,,,> 80%,< 80%,< 80%,
COc1ccnc(C(=O)N[C@@H](C)C(=O)O[C@@H](C)C(c2ccc(C)cc2)c2ccc(C)cc2)c1OC(=O)C(C)C [Cmpd 168],> 80%,> 80%,> 80%,< 80%,,,,

SMILES,"pest or weed control at 121.5 g/ha [1, 3]","pest or weed control at 121.5 g/ha [1, 4]","pest or weed control at 121.5 g/ha [2, 5]","pest or weed control at 121.5 g/ha [2, 6]","pest or weed control at 100 ppm [1, 3]","pest or weed control at 100 ppm [1, 4]","pest or weed control at 100 ppm [2, 5]","pest or weed control at 100 ppm [2, 6]"
COc1ccnc(C(=O)N[C@@H](C)C(=O)O[C@@H](C)C(c2ccc(C)c(Cl)c2)c2ccc(C)c(Cl)c2)c1O [Cmpd 121],,,,,> 80%,> 80%,> 80%,< 80%
COc1ccnc(C(=O)N[C@@H](C)C(=O)O[C@@H](C)C(c2ccc(C)cc2)c2ccc(C)cc2)c1OC(C)=O [Cmpd 167],> 80%,> 80%,> 80%,> 80%,,,,
COc1ccnc(C(=O)N[C@@H](C)C(=O)O[C@@H](C)C(O)(c2ccccc2)c2ccccc2)c1OCOC(C)=O [Cmpd 138],> 80%,< 80%,,< 80%,,,,
COc1ccccc1C(c1ccccc1OC)[C@H](C)OC(=O)[C@H](C)NC(=O)c1nccc(OC)c1OCOC(C)=O [Cmpd 191],> 80%,> 80%,> 80%,> 80%,,,,
COc1ccnc(C(=O)N[C@@H](C)C(=O)OC(C)C2c3ccccc3-c3ccccc32)c1OC(C)=O (stereo partly shown) [Cmpd 161],< 80%,> 80%,,,,,,
COc1ccnc(C(=O)N[C@@H](C)C(=O)O[C@@H](C)C(O)(c2ccc(Cl)cc2F)c2ccc(Cl)cc2F)c1O [Cmpd 119],,,,,> 80%,< 80%,,
CC(=O)OCOc1ccccc1C(=O)N[C@@H](C)C(=O)O[C@@H](C)C(c1ccc(F)cc1)c1ccc(F)cc1 [Cmpd 180],< 80%,,,,,,,
COc1ccnc(C(=O)N[C@@H](C)C(=O)O[C@@H](C)C(c2ccc(-c3ccccc3)cc2)c2ccc(-c3ccccc3)cc2)c1OCOC(C)=O [Cmpd 181],< 80%,< 80%,,,,,,
COc1ccnc(C(=O)N[C@@H](C)C(=O)O[C@@H](C)C(O)(c2ccccc2F)c2ccccc2F)c1OCOC(C)=O [Cmpd 196],> 80%,< 80%,,,,,,
COc1ccnc(C(=O)N[C@@H](C)C(=O)OC(C)C2c3ccccc3-c3ccccc32)c1O (stereo partly shown) [Cmpd 101],,,,,< 80%,,,
COc1ccnc(C(=O)N[C@@H](C)C(=O)OC(C)C2c3ccccc3Oc3ccccc32)c1OC(C)=O (stereo partly shown) [Cmpd 162],,< 80%,,,,,,
C[C@H](NC(=O)c1ccccc1O)C(=O)O[C@@H](C)C(c1ccc(F)cc1)c1ccc(F)cc1 [Cmpd 112],,,,,< 80%,< 80%,,
COc1ccnc(C(=O)N[C@@H](C)C(=O)O[C@@H](C)C(O)(c2ccc(Cl)c(F)c2)c2ccc(Cl)c(F)c2)c1OCOC(C)=O [Cmpd 202],> 80%,> 80%,,,,,,
COc1ccnc(C(=O)N[C@@H](C)C(=O)O[C@@H](C)C(O)(c2ccccc2F)c2ccccc2F)c1O [Cmpd 122],,,,,< 80%,< 80%,,
COc1ccnc(C(=O)N[C@@H](C)C(=O)OC(C)C2c3ccccc3Oc3ccccc32)c1OCOC(C)=O (stereo partly shown) [Cmpd 164],< 80%,,,,,,,
